Assay results published in US20260061085A1, “CYCLIC PEPTIDE AND PREPARATION METHOD THEREFOR, AND COMPLEX COMPRISING SAME AND USE THEREOF” (HEXIN (SUZHOU) PHARMACEUTICAL TECHNOLOGY CO., LTD., priority 2022, published 2026).
Square brackets hold non-standard residues; d marks the D form. Peptide text beside a SMILES is read from it. NMeN = CN[C@@H](CC(N)=O)C(=O)O; Orn = NCCC[C@H](N)C(=O)O; Dab = NCC[C@H](N)C(=O)O; Sar = CNCC(=O)O

Key:
[1] = Stability by in vitro constant temperature (37° C.) incubation in mouse plasma, LC-MS/MS; type: in vitro ADME
Procedure: (§1) The experiment was carried out by using an in vitro constant temperature (37° C.) incubation method to study the stability of the cyclic peptide APN21 of Example 21 and the cyclic peptide KE5 of Comparative Example 1 in mouse plasma or PBS (1.0 μg/mL). The two cyclic peptides were dissolved in 1 mL of mouse […], respectively, and incubated at 37° C. for 0 h, 0.5 h, 1 h, 4 h, 24 h, and 48 h, and a percentage of drug remaining was then measured and determined. PBS was used as a negative control group. Peak areas of the drug and an internal standard were measured using an LC-MS/MS method, and ratios of the peaks were used instead of the drug concentration for calculation.

[2] = Stability by in vitro constant temperature (37° C.) incubation in PBS, LC-MS/MS; type: physicochemical
Procedure: as §1

[3] = tested on: HT-1080 tumor-bearing mice; assay: Small-animal PET/CT imaging of HT-1080 tumor-bearing mice with CD13 blocking; type: in vivo; settings: co-injected with unlabeled NGR peptide 15 mg/kg, tail vein, 0.5, 1 and 2 hours after injection, versus unblocked APN21 Group
Procedure: HT-1080 cells were taken from normal NCr nude mice (18-25 g, 4-6 weeks old, n=3), and 2λ10^6 cells were implanted subcutaneously in right shoulders of mice in a mixture of 200 μL phosphate buffer and matrix gel (v/v, 1/1). […] PET/CT and image analysis were performed using a small-animal NovclMedcal PET/CT scanner (Novel Medical Equipment Ltd., Beijing). Maximum tangential and radial half-widths of the scanner in a center of field of view were 1.5 mm, and at an edge of the field of view were 1.8 mm. […] Static PET/CT images were obtained for 15 min at 0.5, 1, and 2 hours after intravenous injection. […] Static PET/CT images were obtained for 15 min at 0.5, 1, and 2 hours after intravenous injection. […] Static PET/CT images were obtained for 15 min at 0.5, 1, and 2 hours after intravenous injection. […] […] PET and CT images were acquired using NMSoft workstation software (Novel Medical Equipment Ltd., Beijing), and data were given as a percentage of injected dose per gram of tissue or organ (ID/g), and were determined through decay correction for each sample (standardized to a known weight of the injected dose).

[4] = tested on: HT-1080 cells; assay: Relative cell uptake of Cy3 fluorescent peptides by HT-1080 cells; type: cell-based, human; settings: Cy3 fluorescent peptide, 37° C. 30 min, multiple of KE5-Cy3 uptake taken as 1.00
Procedure: The binding affinity of the polypeptides in the examples and comparative examples to an HT-1080 cell line was identified through cell uptake studies.
The human fibrosarcoma cell line HT-1080 was cultured in Dulbecco's Modified Eagle Medium (DMEM) (Gibco) mixed with 10% sterile filtered fetal bovine serum (FBS) and 1% penicillin-streptomycin antibiotic solution. The cell culture was maintained in a controlled environment at 37° C. and 5% CO2, and subculture was performed every 3-4 days. 24 hours prior to the experiment, cells were seeded in a 96-well plate (5000 cells per well) and cultured overnight until the cells adhered to a wall. Before the experiment, cells were washed twice with […] of phosphate-buffered saline (PBS) to remove a growth medium.
Purification is performed through HPLC.
HT-1080 cells were treated with KE5-Cy3 fluorescent peptide of Comparative Example 1.
(§2) After incubation at 37° C. for 30 min, the cells were washed twice with PBS, an intracellular fluorescence intensity was measured using a fluorescence microplate reader (with an […]) to evaluate the uptake of KE5-Cy3 fluorescent peptide by HT-1080 cells.
(§3) 10 μL of CCK-8 were added to each group of cells and incubated for 4 h, the cells were then read using a microplate reader (with a wavelength of 490 nm), and errors in fluorescence intensity of each group of cells caused by difference in a number of cells was corrected by CCK-8.
Each group was subjected to the above operation three times to determine an optimal concentration for the uptake of KE5-Cy3 fluorescent peptide by HT-1080 cells.
(§4) HT-1080 cells were treated with the APN-Cy3 fluorescent peptide of each of the Examples, wherein a concentration of each APN-Cy3 fluorescent peptide was an optimal concentration determined by KE5-Cy3 fluorescent peptides of Comparative Example 1 according to the uptake by the HT-1080 cells.
as §2, with “APN-Cy3” for “KE5-Cy3”
A relative cell uptake (RCU) for each APN-Cy3 fluorescent peptide relative to the KE5-Cy3 fluorescent peptide was calculated using the following formula: […]

[5] = biological target: T1, Aminopeptidase N (APN, also known as CD13) (human, UniProt P15144 2-967); assay: Cy3 fluorescence uptake by HT-1080 cells, 37 C 30 min, microplate reader, CCK-8 corrected, relative to KE5-Cy3
T1 construct: whole, on cells; The assay itself used HT-1080 cells (endogenous expression, not transfected); also called CD13 protein; CD13 receptor
T1 sequence (P15144 2-967): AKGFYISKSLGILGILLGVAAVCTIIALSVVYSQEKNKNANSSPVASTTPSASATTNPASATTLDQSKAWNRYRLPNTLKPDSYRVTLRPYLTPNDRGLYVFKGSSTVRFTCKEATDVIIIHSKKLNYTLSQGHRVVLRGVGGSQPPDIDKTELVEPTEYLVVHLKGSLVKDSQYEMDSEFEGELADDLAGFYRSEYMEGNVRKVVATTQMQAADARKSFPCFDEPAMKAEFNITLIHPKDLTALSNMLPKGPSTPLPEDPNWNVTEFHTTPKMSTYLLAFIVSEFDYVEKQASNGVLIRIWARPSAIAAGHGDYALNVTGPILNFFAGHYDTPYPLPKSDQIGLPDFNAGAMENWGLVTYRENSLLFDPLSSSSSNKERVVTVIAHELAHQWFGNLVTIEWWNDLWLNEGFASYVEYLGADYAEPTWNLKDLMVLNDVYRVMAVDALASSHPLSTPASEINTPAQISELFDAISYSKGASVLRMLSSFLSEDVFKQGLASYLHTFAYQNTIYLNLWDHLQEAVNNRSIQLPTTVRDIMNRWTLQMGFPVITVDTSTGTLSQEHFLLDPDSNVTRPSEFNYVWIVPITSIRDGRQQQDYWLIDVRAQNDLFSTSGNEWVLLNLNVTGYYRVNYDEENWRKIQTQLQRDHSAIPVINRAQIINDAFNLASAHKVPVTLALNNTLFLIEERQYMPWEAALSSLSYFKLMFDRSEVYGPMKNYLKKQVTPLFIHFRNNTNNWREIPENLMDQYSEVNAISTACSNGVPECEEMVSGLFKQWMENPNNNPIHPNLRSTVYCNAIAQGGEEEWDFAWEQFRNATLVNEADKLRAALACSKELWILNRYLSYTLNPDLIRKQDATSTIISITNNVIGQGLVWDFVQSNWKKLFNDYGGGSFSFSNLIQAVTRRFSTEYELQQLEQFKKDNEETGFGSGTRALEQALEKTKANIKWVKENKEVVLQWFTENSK
Procedure: as §4
as §2, with “APN-Cy3” for “KE5-Cy3”
as §3

[6] = 0.5 h, read-out: percentage of drug remaining
[7] = 1 h, read-out: percentage of drug remaining
[8] = 4 h, read-out: percentage of drug remaining
[9] = 24 h, read-out: percentage of drug remaining
[10] = 48 h, read-out: percentage of drug remaining

Molecule: N=C(N)NCCC[C@@H]1NC(=O)CNC(=O)[C@H](CC(N)=O)NC(=O)[C@H](CCCCN)NC(=O)[C@H](CCC(=O)O)NC1=O [Comparative Example 1, cyclo(NGREK), reference compound] (cyclo(EKNGR))
- percentage of drug remaining ([1]; 0 h): 100%
- remaining at 0.5 h, 1 μg/mL [1, 6]: 94.8%
- remaining at 1 h, 1 μg/mL [1, 7]: 89.4%
- remaining at 4 h, 1 μg/mL [1, 8]: 80.2%
- remaining at 24 h, 1 μg/mL [1, 9]: 39.8%
- remaining at 48 h, 1 μg/mL [1, 10]: 12.4%
- percentage of drug remaining ([2]; 0 h): 100%
- remaining at 0.5 h, 1 μg/mL [2, 6]: 99.1%
- remaining at 1 h, 1 μg/mL [2, 7]: 96.6%
- remaining at 4 h, 1 μg/mL [2, 8]: 91.4%
- remaining at 24 h, 1 μg/mL [2, 9]: 73.4%
- remaining at 48 h, 1 μg/mL [2, 10]: 42.7%

Molecule: ^68Ga-APN21-Bn-SCN-NOTA: ^68Ga-labelled conjugate of cyclic peptide APN21 (Example 21) with NOTA-Bn-SCN chelator (cyclo(N[Sar]RTKY); not fully specified (residue 5); also: 68Ga-NOTA-Bn-SCN chelator conjugated, site not given here)
- PET/CT signal intensity (tumor uptake) in APN21-Blocking Group [3]: significantly weaker than that of the unblocked APN21 group

Molecule: cyclo(NGRDK) (cyclic; circular) [Example 1]
- RCU (relative cell uptake) [4]: 0.65

Molecule: cyclo(NGRTCE) (cyclic; circular) [Example 10]
- RCU (relative cell uptake) [4]: 0.77

Molecule: cyclo(NGRTCF) (cyclic; circular) [Example 12]
- RCU (relative cell uptake) [4]: 0.82

Molecule: cyclo(NGRTCG) (cyclic; circular) [Example 13]
- RCU (relative cell uptake) [4]: 0.49

Molecule: cyclo(NGRTCV) (cyclic; circular) [Example 11]
- RCU (relative cell uptake) [4]: 0.92

Molecule: cyclo(NGRTCY) (cyclic; circular) [Example 14]
- RCU (relative cell uptake) [4]: 1.05

Molecule: cyclo(NGRTKF) (cyclic; circular) [Example 7]
- RCU (relative cell uptake) [4]: 0.56

Molecule: cyclo(NGRTKG) (cyclic; circular) [Example 8]
- RCU (relative cell uptake) [4]: 1.14

Molecule: cyclo(NGRTKf) (cyclo(NGRTK[dF]); SMILES C[C@@H](O)[C@@H]1NC(=O)[C@H](CCCNC(=N)N)NC(=O)CNC(=O)[C@H](CC(N)=O)NC(=O)[C@@H](Cc2ccccc2)NC(=O)[C@H](CCCCN)NC1=O) [Example 17]
- RCU (relative cell uptake) [4]: 0.49

Molecule: cyclo(NSarRTDabY) (cyclo(N[Sar]RT[Dab]Y); SMILES C[C@@H](O)[C@@H]1NC(=O)[C@H](CCCNC(=N)N)NC(=O)CN(C)C(=O)[C@H](CC(N)=O)NC(=O)[C@H](Cc2ccc(O)cc2)NC(=O)[C@H](CCN)NC1=O) [Example 24]
- RCU (relative cell uptake) [4]: 0.57

Molecule: cyclo(NSarRTOrnY) (cyclo(N[Sar]RT[Orn]Y); SMILES C[C@@H](O)[C@@H]1NC(=O)[C@H](CCCNC(=N)N)NC(=O)CN(C)C(=O)[C@H](CC(N)=O)NC(=O)[C@H](Cc2ccc(O)cc2)NC(=O)[C@H](CCCN)NC1=O) [Example 23]
- RCU (relative cell uptake) [4]: 1.20

Molecule: cyclo(NSarRTcY) (cyclo(N[Sar]RT[dC]Y); SMILES C[C@@H](O)[C@@H]1NC(=O)[C@H](CCCNC(=N)N)NC(=O)CN(C)C(=O)[C@H](CC(N)=O)NC(=O)[C@H](Cc2ccc(O)cc2)NC(=O)[C@@H](CS)NC1=O) [Example 25]
- RCU (relative cell uptake) [4]: 0.72

Molecule: cyclo(NmeGRTDabY) (cyclo([NMeN]GRT[Dab]Y); SMILES C[C@@H](O)[C@@H]1NC(=O)[C@H](CCCNC(=N)N)NC(=O)CNC(=O)[C@H](CC(N)=O)N(C)C(=O)[C@H](Cc2ccc(O)cc2)NC(=O)[C@H](CCN)NC1=O) [Example 26]
- RCU (relative cell uptake) [4]: 0.41

Molecule: cyclo(NmeGRTKY) (cyclo([NMeN]GRTKY); SMILES C[C@@H](O)[C@@H]1NC(=O)[C@H](CCCNC(=N)N)NC(=O)CNC(=O)[C@H](CC(N)=O)N(C)C(=O)[C@H](Cc2ccc(O)cc2)NC(=O)[C@H](CCCCN)NC1=O) [Example 20]
- RCU (relative cell uptake) [4]: 0.78

Molecule: cyclo(NmeGRTOrnY) (cyclo([NMeN]GRT[Orn]Y); SMILES C[C@@H](O)[C@@H]1NC(=O)[C@H](CCCNC(=N)N)NC(=O)CNC(=O)[C@H](CC(N)=O)N(C)C(=O)[C@H](Cc2ccc(O)cc2)NC(=O)[C@H](CCCN)NC1=O) [Example 27]
- RCU (relative cell uptake) [4]: 0.37

Molecule: cyclo(NmeGRTcY) (cyclo([NMeN]GRT[dC]Y)) [Example 28]
- RCU (relative cell uptake) [4]: 0.62

B1: APN21-Cy3 fluorescent peptide (Example 21) (peptide)
peptide: cyclo(N[Sar]RTKY)
modifications: not fully specified (residue 5); also: Cy3 dye attached via Cy3-NHS, site not given here
notes: also called cyclo(NSarRTKY)
- RCU (relative cell uptake, KE5-Cy3 = 1.00) [5]: 5.68 fold of KE5-Cy3
